The values below are quoted from earlier work in paper PMC4716540 (British Journal of Cancer, 2015).

This series concerns haematological and solid tumours. Conditions: early clinical trials; ref Zhou et al, 2012; cited from earlier work.

For the compound `CC1(C)CC(=O)c2c(C(F)(F)F)nn(-c3ccc(C(N)=O)c(N[C@H]4CC[C@H](OC(=O)CN)CC4)c3)c2C1` [SNX-5422], the “Visual disorders (blurred vision, flashes, delayed light/dark accommodation, photophobia)” value is “associated with visual disorders”.
Take `CO[C@H]1/C=C\C=C(/C)C(=O)NC2=CC(=O)C(NCCN(C)C)=C(C[C@@H](C)C[C@H](OC)[C@H](O)[C@@H](C)/C=C(\C)[C@@H]1OC(N)=O)C2=O` [alvespimycin]: the “Visual disorders (blurred vision, flashes, delayed light/dark accommodation, photophobia)” value is “associated with visual disorders”.
